The source made the active and inactive calls.

This is an account of results in ChEMBL document CHEMBL4359837, “Discovery of 2-(4-Chloro-3-(trifluoromethyl)phenyl)-N-(4-((6,7-dimethoxyquinolin-4-yl)oxy)phenyl)acetamide (CHMFL-KIT-64) as a Novel Orally Available Potent Inhibitor against Broad-Spectrum Mutants of c-KIT Kinase for Gastrointestinal Stromal Tumors” (J Med Chem, 2019).

In series [1] the target is Mast/stem cell growth factor receptor Kit (Homo sapiens, UniProt P10721). In words: Inhibition of human KIT.
In series [2] the target is T1, Mast/stem cell growth factor receptor Kit (Homo sapiens, UniProt P10721, 560-578DEL/T670I). The format is cell-based.
A short description of series [3]: Cmax in mouse at 1 mg/kg, iv by LC-MS/MS analysis. Details: dose 1 mg/kg, route intravenous. It is filed as ADME, organism-based. As to conditions: in vivo.
In series [4] the test system is Mus musculus. It is filed as functional, organism-based. As to conditions: BALB/c, 80 mg/kg.
In series [5] the test system is Mast/stem cell growth factor receptor Kit (Homo sapiens), P10721 [UNDEFINED MUTATION]. The conditions noted are these: GISTT1.
Description: Inhibition of c-KIT 560 to 578 deletion/T670I mutant in human GISTT1 cells assessed as growth inhibition after 72 hrs by CCK8 assay
The test system of series [6] is Mus musculus. It is filed as functional, organism-based. The conditions noted are these: BALB/c, 80 mg/kg. This is another data set of the same source.
Series [7] is described as follows: Toxicity in BALB/c nu mouse implanted with mouse BAF3(transformed) cells harboring c-KIT Y823D mutant assessed as change in body weight at 40 to 80 mg/kg/day, po administered via gavage for 9 days measured daily during compound dosing. It is filed as organism-based. The conditions noted are these: in vivo, 216 h.
Series [8] addresses T1, Mast/stem cell growth factor receptor Kit. It is filed as cell-based, GISTT1.
The test system of series [9] is Mus musculus. The format is functional, organism-based. As to conditions: BALB/c, 80 mg/kg, TDE = time-dependent effect.
Series [10] concerns the target Proto-oncogene tyrosine-protein kinase receptor Ret (Mus musculus) (UniProt P35546). In words: Inhibition of RET in mouse BAF3(transformed) cells assessed as growth inhibition after 72 hrs by CCK8 assay. In general terms: Tetrazolium assays rely on reduction of a dye to a coloured formazan, in cell work by metabolically active cells.
For series [11], the target named is Vascular endothelial growth factor receptor 3 (Homo sapiens) (UniProt P35916). Description: Binding affinity to wild-type human partial length FLT4 (E821 to E1196 residues) expressed in bacterial expression system assessed as residual binding level at 1 uM by Kinomescan method relative to control.
Series [12] is described as follows: Protein binding in plasma (unknown origin). It is filed as ADME, cell-free. The conditions noted are these: read-out: PPB.
Series [13] addresses T2, Mast/stem cell growth factor receptor Kit (Homo sapiens, UniProt P10721, 560-578DEL). It is filed as cell-based, GISTT1.
Series [14] relates to Mast/stem cell growth factor receptor Kit (Homo sapiens), P10721 [V560D]. As to conditions: Mus musculus.
Series [15] deals with T3, Epithelial discoidin domain-containing receptor 1 (Homo sapiens, UniProt Q08345). In words: Inhibition of human GST-tagged DDR1 catalytic domain (440 to 876 residues) expressed in baculovirus expression system by Lanthascreen Eu-binding assay. On the technique in general: Time-resolved FRET reads energy transfer from a long-lived donor to a nearby acceptor.
In series [16] the target is Platelet-derived growth factor receptor beta (Mus musculus) (UniProt P05622). In words: Inhibition of PDGFRB in mouse BAF3(transformed) cells assessed as growth inhibition after 72 hrs by CCK8 assay.
Series [17] can be described thus: Cmax in mouse at 10 mg/kg, po by LC-MS/MS analysis. It is filed as ADME, organism-based. On the set-up: dose 10 mg/kg, route oral. The conditions noted are these: in vivo.
The target of series [18] is T2, Mast/stem cell growth factor receptor Kit. The format is cell-based, GISTT1. The source holds these as a separate data set.
For series [19] the target is unchanged. It is filed as cell-based, GISTT1. The source holds these as a separate data set.
The target of series [20] is T3, Epithelial discoidin domain-containing receptor 1. In words: Binding affinity to wild-type human partial length DDR1 (R565 to V876 residues) expressed in bacterial expression system assessed as residual binding level at 1 uM by Kinomescan method relative to control.
The target of series [21] is Proto-oncogene tyrosine-protein kinase receptor Ret (Homo sapiens, UniProt P07949). Description: Binding affinity to wild-type human partial length RET (E713 to D1014 residues) expressed in bacterial expression system assessed as residual binding level at 1 uM by Kinomescan method relative to control.
The species named for series [22] is Homo sapiens. It is filed as functional, cell-based.
The test system of series [23] is Mus musculus. It is filed as functional, organism-based. As to conditions: BALB/c, 80 mg/kg. The source holds these as a separate data set.
Series [24] addresses Macrophage colony-stimulating factor 1 receptor (Homo sapiens, UniProt P07333). Description: Binding affinity to wild-type human partial length CSF1R (I564 to S939 residues) expressed in bacterial expression system assessed as residual binding level at 1 uM by Kinomescan method relative to control.
A short description of series [25]: Tmax in Sprague-Dawley rat at 1 mg/kg, iv by LC-MS/MS analysis. It is filed as ADME, organism-based. As to conditions: in vivo.
Series [26] is described as follows: Antitumor activity against mouse BAF3(transformed) cells harboring c-KIT Y823D mutant implanted in BALB/c nu mouse assessed as tumor growth inhibition at 80 mg/kg/day, po administered via gavage for 9 days relative to control. It is filed as functional. As to conditions: 216 h, read-out: TGI.
The subject of series [27] is GISTT1. The format is functional, cell-based. As to conditions: Homo sapiens.
A short description of series [28]: Half life in Sprague-Dawley rat at 10 mg/kg, po by LC-MS/MS analysis. It is filed as ADME, organism-based. As to conditions: in vivo.
Series [29] has as its system Mast/stem cell growth factor receptor Kit (Homo sapiens), P10721 [T670I]. As to conditions: Mus musculus.
Description: Inhibition of c-KIT T670I mutant in mouse BAF3(transformed) cells assessed as growth inhibition after 72 hrs by CCK8 assay
A short description of series [30]: Oral bioavailability in mouse at 10 mg/kg by LC-MS/MS analysis. It is filed as ADME, organism-based. The conditions noted are these: in vivo.
Series [31] deals with T1, Mast/stem cell growth factor receptor Kit.
In series [32] the test system is Mast/stem cell growth factor receptor Kit (Homo sapiens), P10721 [Y823D]. As to conditions: Mus musculus.
Description: Inhibition of c-KIT Y823D mutant in mouse BAF3(transformed) cells assessed as growth inhibition after 72 hrs by CCK8 assay
A short description of series [33]: Tmax in mouse at 1 mg/kg, iv by LC-MS/MS analysis. As to conditions: in vivo. The format is ADME, organism-based.
Series [34] relates to GISTT1. The format is functional, Homo sapiens.
Series [35] concerns the target RAC-alpha serine/threonine-protein kinase (Homo sapiens) (UniProt P31749). The format is cell-based. As to conditions: GISTT1.
The test system of series [36] is GISTT1. The format is functional, cell-based. The conditions noted are these: Homo sapiens. The source holds these as a separate data set.
In series [37] the test system is GISTT1. The format is functional, cell-based. The conditions noted are these: Homo sapiens. This is another data set of the same source.
The target of series [38] is Platelet-derived growth factor receptor alpha (Homo sapiens, UniProt P16234). Description: Binding affinity to wild-type human partial length PDGFRA (V575 to D1002 residues) expressed in mammalian expression system assessed as residual binding level at 1 uM by Kinomescan method relative to control.
In series [39] the target is T1, Mast/stem cell growth factor receptor Kit. It is filed as cell-based. This is another data set of the same source.
In series [40] the test system is Mast/stem cell growth factor receptor Kit (Homo sapiens), P10721 [UNDEFINED MUTATION].
Description: Inhibition of c-KIT 560 to 578 deletion/T670I mutant in human GIST5R cells assessed as growth inhibition after 72 hrs by CCK8 assay
Series [41] has the same test system. As to conditions: GISTT1, 0.1 uM.
Description: Inhibition of c-KIT 560 to 578 deletion/T670I mutant in human GISTT1 cells assessed as reduction in pS6 phosphorylation at S235 residue at 0.1 uM measured after 2 hrs by Western blot analysis
Series [42] has the same test system. As to conditions: GISTT1, 0.1 uM. The source holds these as a separate data set.
Description: Inhibition of c-KIT 560 to 578 deletion mutant in human GISTT1 cells assessed as reduction in c-KIT autophosphorylation at Y719 residue at 0.1 uM measured after 2 hrs by Western blot analysis
Series [43] shares this test system. The conditions noted are these: GISTT1, 0.1 uM. This is another data set of the same source.
Description: Inhibition of c-KIT 560 to 578 deletion mutant in human GISTT1 cells assessed as reduction in AKT phosphorylation at S473 residue at 0.1 uM measured after 2 hrs by Western blot analysis
Series [44] shares this test system. The conditions noted are these: 0.1 uM.
Description: Inhibition of c-KIT 560 to 578 deletion/T670I mutant in human GIST5R assessed as reduction in pS6 phosphorylation at S236 residue at 0.1 uM measured after 2 hrs by Western blot analysis
For series [45] the test system is unchanged. As to conditions: GISTT1, 0.1 uM. This is another data set of the same source.
Description: Inhibition of c-KIT 560 to 578 deletion/T670I mutant in human GISTT1 cells assessed as reduction in c-KIT autophosphorylation at Y823 residue at 0.1 uM measured after 2 hrs by Western blot analysis
The test system is the same in series [46]. The conditions noted are these: GISTT1, 0.1 uM. This is another data set of the same source.
Description: Inhibition of c-KIT 560 to 578 deletion mutant in human GISTT1 cells assessed as reduction in c-KIT autophosphorylation at Y703 residue at 0.1 uM measured after 2 hrs by Western blot analysis
Series [47] has the same test system. As to conditions: GISTT1, 0.1 uM. The source holds these as a separate data set.
Description: Inhibition of c-KIT 560 to 578 deletion mutant in human GISTT1 cells assessed as reduction in AKT phosphorylation at T308 residue at 0.1 uM measured after 2 hrs by Western blot analysis
The test system is the same in series [48]. The conditions noted are these: GISTT1, 0.1 uM. This is another data set of the same source.
Description: Inhibition of c-KIT 560 to 578 deletion mutant in human GISTT1 cells assessed as reduction in ERK phosphorylation at T202 residue at 0.1 uM measured after 2 hrs by Western blot analysis

T2 sequence (P10721 whole entry, looked up, stated change not applied): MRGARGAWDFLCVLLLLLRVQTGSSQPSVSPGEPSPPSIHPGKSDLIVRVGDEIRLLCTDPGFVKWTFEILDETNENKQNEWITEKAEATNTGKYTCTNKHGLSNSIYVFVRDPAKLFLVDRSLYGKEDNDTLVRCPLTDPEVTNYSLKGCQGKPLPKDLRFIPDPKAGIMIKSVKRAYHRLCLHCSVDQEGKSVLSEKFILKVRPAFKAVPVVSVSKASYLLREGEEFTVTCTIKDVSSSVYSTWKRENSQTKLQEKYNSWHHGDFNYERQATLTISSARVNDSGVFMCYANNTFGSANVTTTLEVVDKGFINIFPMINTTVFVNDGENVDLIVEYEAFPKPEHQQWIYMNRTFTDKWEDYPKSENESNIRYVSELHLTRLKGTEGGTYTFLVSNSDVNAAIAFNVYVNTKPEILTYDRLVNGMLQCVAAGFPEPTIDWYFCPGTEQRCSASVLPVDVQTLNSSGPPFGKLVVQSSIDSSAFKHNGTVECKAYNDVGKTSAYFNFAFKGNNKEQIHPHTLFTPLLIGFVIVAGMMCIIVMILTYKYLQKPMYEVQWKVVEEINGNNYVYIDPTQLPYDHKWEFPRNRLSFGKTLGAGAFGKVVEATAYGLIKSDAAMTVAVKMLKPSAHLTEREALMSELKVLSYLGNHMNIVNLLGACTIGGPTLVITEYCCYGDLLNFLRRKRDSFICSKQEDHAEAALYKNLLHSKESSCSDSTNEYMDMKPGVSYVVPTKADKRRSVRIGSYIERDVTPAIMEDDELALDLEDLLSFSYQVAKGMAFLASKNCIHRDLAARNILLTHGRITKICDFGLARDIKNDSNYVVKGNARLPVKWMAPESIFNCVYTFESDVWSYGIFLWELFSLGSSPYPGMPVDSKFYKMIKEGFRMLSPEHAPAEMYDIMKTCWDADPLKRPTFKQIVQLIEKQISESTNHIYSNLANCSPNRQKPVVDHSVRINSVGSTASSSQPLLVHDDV
Mast/stem cell growth factor receptor Kit (Homo sapiens), P10721 [UNDEFINED MUTATION], sequence (P10721 whole entry, looked up, change not shown): as the sequence (P10721 whole entry, looked up, stated change not applied) above
T1 sequence (P10721 whole entry, looked up, stated change not applied): as above
T3 sequence (Q08345 whole entry, the tested form may be a part): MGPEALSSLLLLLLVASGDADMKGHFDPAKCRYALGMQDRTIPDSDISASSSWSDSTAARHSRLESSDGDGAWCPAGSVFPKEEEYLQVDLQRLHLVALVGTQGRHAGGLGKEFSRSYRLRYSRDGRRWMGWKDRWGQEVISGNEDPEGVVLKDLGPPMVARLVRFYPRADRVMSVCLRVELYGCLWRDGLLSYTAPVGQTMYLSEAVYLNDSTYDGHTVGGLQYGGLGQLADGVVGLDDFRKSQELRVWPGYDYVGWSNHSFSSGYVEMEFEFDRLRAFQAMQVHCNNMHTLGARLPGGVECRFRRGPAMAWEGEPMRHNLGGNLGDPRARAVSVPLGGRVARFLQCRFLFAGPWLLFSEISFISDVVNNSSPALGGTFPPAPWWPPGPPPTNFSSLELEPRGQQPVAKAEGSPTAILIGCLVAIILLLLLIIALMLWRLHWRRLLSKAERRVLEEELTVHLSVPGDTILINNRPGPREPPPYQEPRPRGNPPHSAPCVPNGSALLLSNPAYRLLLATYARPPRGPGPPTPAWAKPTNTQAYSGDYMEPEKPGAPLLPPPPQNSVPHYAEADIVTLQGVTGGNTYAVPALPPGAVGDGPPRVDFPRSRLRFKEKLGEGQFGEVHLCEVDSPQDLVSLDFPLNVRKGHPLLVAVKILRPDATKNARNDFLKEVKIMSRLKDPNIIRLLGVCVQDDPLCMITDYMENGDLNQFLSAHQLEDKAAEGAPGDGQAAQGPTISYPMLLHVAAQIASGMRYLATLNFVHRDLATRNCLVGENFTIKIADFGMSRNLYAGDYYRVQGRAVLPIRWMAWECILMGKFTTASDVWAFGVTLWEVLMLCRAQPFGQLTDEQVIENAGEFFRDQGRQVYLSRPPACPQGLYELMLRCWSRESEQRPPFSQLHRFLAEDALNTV
Mast/stem cell growth factor receptor Kit (Homo sapiens, UniProt P10721), sequence (P10721 whole entry): as the sequence (P10721 whole entry, looked up, stated change not applied) above

A word on the IC50: it is the concentration that gives 50% inhibition. Read a high IC50 as weaker potency. One may read the EC50 as the concentration at which the effect is half-maximal. The low end stands for an effect from little substance, the high end for a need for much substance. What is called Cmax is the highest concentration seen after dosing. In general, GI50 refers to the concentration that inhibits growth by half. For orientation: Tmax means the time from dosing to the highest level. As usually defined, the half-life is the time needed for the level to fall by half in the phase considered. Low readings indicate rapid decline, high ones slow decline. The term bioavailability denotes the share of a dose that reaches the circulation, judged against a reference dose that is usually intravenous. A higher bioavailability goes with good availability. Consider `COc1cc2nccc(Oc3ccc(NC(=O)Cc4ccc(Cl)c(C(F)(F)F)c4)cc3)c2cc1OC`, for which the IC50 in series [1] was 0.004 µM; in series [15] it was 0.135 µM. Moreover, the EC50 in series [2], in [8], in [13], in series [18], in series [19] and in series [31] was less than 0.1 µM each time. The EC50 in [39] was less than 0.1 µM. In addition, the figures for the Cmax in series [3] and in series [17] were 0.52 µg/mL and 1.39 µg/mL, respectively. Further, the inhibition result in [4], in series [6] and in [23] was “inactive” each time. Moreover, the GI50 in [5] turned out to be 0.006 µM; in series [10], 0.28 µM; in [14], 0.004 µM; in series [16] it was 0.004 µM; in series [29], 0.004 µM; in series [32], 0.035 µM. This molecule yielded a GI50 in series [40] of 0.073 µM. The Activity entry is “Non-Toxic” in [7]; less than 1% in series [11]; less than 1% in series [20]; less than 1% in [21]; “Dose-dependent effect” in series [22]; less than 1% in [24]. Besides, the Activity entry in series [27] is “Dose-dependent effect”; in [34], 0.14 g; in series [36] it was “Dose-dependent effect”; in [38] it was less than 1%. For the same molecule, the inhibition entry in series [9] was “Tde”. Further, the fraction unbound in [12] was less than 0.1. Also, the figures for the time to peak (Tmax) in [25] and in series [33] were 0 h and 1.8 min, respectively. Moreover, the inhibition in vivo at 80 mg/kg/day in [26] is 90.2%. The molecule further gave a half-life in [28] of 6.41 h. Moreover, the bioavailability in series [30] is 43%. Besides, the inhibition entry in [35] was “Active”. Moreover, the TGI entry in series [37] was “Dose-dependent effect”.
As for `CCN(CC)CCNC(=O)c1c(C)[nH]c(/C=C2\C(=O)Nc3ccc(F)cc32)c1C` [SUNITINIB], the inhibition result in series [41], in [42], in series [43], in series [44], in series [45] and in series [46] was “Active” throughout. In addition, the inhibition entry in series [47] and in series [48] was “Active” throughout.
